Reference: PMC5120204, “Identification of an orally active small-molecule PTHR1 agonist for the treatment of hypoparathyroidism” (Nature Communications, 2016)
Numbering of substitutions follows the chain as printed. Like-named read-outs stand apart in the source and are kept apart here.

What was measured:
endogenous rat PTHR1 = molecular target: T1, endogenous rat PTHR1 (Rattus norvegicus, UniProt P25961); assay: cAMP production in UMR-106 cells; type: cell-based
T1 construct: UMR-106 cells, which natively express rat PTHR1; endogenous in cells; host or cells: UMR-106 (ATCC)
T1 sequence (P25961 27-591): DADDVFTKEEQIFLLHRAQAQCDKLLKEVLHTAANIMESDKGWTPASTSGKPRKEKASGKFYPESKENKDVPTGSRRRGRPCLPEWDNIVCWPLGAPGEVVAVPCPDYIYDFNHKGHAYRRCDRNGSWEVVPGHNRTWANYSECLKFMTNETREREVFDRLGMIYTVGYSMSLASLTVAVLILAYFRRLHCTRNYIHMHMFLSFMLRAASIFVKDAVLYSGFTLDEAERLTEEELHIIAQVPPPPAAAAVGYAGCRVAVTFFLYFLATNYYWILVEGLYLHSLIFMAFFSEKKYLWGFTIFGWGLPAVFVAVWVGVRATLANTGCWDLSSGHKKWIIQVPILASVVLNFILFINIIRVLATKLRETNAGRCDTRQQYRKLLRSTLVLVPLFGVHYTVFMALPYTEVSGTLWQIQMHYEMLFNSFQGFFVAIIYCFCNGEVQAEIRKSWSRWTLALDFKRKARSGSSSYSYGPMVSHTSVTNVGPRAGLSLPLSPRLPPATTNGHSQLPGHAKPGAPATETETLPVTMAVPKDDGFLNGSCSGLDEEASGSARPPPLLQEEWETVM

[1] = molecular target: T2, hPTHR1–hPTHR2 chimeric receptors (C1, C2, C3) and mutant hPTHR1s (M24, M25, M26, M414V, P415L, L416V) (Homo sapiens, UniProt Q03431, L416V/M414V/P415L); type: cell-based; details: mutant receptor M25 (M414, P415, L416 replaced)
T2 construct: expressed in transfected cells; host or cells: COS-7 (transient)
T2 sequence (Q03431 27-593 E93Y/D94P/K95Y/E96D/A97V/T99D/G100Y/S101A/M414V/P415L/L416V): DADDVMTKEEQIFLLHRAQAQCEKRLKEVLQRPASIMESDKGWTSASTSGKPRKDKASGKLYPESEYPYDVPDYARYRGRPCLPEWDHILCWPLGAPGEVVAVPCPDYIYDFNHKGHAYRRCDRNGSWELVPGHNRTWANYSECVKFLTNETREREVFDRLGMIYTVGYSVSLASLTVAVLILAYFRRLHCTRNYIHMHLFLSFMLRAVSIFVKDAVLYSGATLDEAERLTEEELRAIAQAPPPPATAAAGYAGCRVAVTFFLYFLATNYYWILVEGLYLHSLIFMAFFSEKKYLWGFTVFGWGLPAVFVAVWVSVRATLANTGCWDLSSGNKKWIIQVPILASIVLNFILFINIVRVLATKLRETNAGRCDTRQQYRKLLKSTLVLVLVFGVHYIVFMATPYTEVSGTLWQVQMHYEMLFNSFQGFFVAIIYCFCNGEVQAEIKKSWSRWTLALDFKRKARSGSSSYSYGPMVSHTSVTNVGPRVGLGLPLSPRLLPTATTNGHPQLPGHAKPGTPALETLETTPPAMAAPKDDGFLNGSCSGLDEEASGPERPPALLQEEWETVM
Protocol: (§1) COS-7 cells (ATCC) were seeded into a 96-well flat-bottomed plate (1.4 × 10^4 cells per 100 μl per well) and incubated overnight. The next day, the COS-7 cells were transfected by adding 10 μl of a mixture of hPTHR1, hPTHR2 or mutant hPTHR1 plasmid, rat PTHR1 or rat PTHR2 plasmid, or empty vector (0.1 μg per well), FuGENE HD Transfection Reagent (0.4 μl per well, Promega), and Opti-MEM I Reduced Serum Medium (10 μl per well, Life Technologies) to each well. […] The plate was placed in a 37 °C constant-temperature water bath for 20 min to allow the reaction to proceed. After incubation, the liquid in the wells was discarded, the wells were washed with the assay medium (100 μl per well), and the plate was frozen on dry ice. Next, 40 μl of 50 mmol l^−1 HCl was added to each well, and the plate was stored in a freezer set at ≤−20 °C. The cAMP concentrations were measured by using a cAMP EIA kit (GE Healthcare). EC50 values were determined from three independent experiments in duplicate by a non-linear regression Emax model (JMP ver.9.0.2, SAS Institute). The geometric mean of the EC50 values obtained in three experiments in duplicate was calculated using Microsoft Office Excel 2007. […]

[2] = molecular target: T3, hPTHR1–hPTHR2 chimeric receptors (C1, C2, C3) and mutant hPTHR1s (M24, M25, M26, M414V, P415L, L416V) (Homo sapiens, UniProt Q03431, P415L); type: cell-based; details: single replacement P415L
T3 construct: expressed in transfected cells; host or cells: COS-7 (transient)
T3 sequence (Q03431 27-593 E93Y/D94P/K95Y/E96D/A97V/T99D/G100Y/S101A/P415L): T2 sequence (Q03431 27-593 E93Y/D94P/K95Y/E96D/A97V/T99D/G100Y/S101A/M414V/P415L/L416V) with V388M, V390L
Protocol: as §1

[3] = system: hPTHR1–hPTHR2 chimeric receptors (C1, C2, C3) and mutant hPTHR1s (M24, M25, M26, M414V, P415L, L416V); type: cell-based, human
Protocol: as §1

[4] = Pharmacokinetics in TPTX rats; type: in vivo, rat; details: female, Crl:CD(SD), rat, plasma, po

Cc1cc(N2C(=O)NC(=O)C2(C)C)cc(C)c1CCS(=O)(=O)N1CCC2(CC1)N=C(c1ccc(OC(F)(F)F)cc1)NC2=O [PCO371, 1-{3,5-dimethyl-4-[2-({4-oxo-2-[4-(trifluoromethoxy)phenyl]-1,3,8-triazaspiro[4.5]dec-1-en-8-yl}sulfonyl)ethyl]phenyl}-5,5-dimethylimidazolidine-2,4-dione]
cAMP production (endogenous rat PTHR1; 1 μmol l^−1, 20 min): did not induce cAMP production | cAMP production (endogenous rat PTHR1; 20 min): induced cAMP production | cAMP increase [1]: lack of cAMP increase | cAMP production [2]: dramatic reduction | cAMP ([3]; cells expressing C1 or C2): did not do so | cAMP response ([3]; single replacements M414V and L416V): only modest effects | half-life ([4]; p.o. 2 mg kg-1): 6.9 ± 2.3 h | AUC ([4]; p.o. 2 mg kg-1, read-out: AUC): 464 ± 125 ng·h/mL | Cmax ([4]; p.o. 2 mg kg-1, read-out: Cmax): 95.6 ± 84.4 ng/mL | Tmax ([4]; p.o. 2 mg kg-1, read-out: Tmax): 1.4 ± 1 h | half-life ([4]; p.o. 6 mg kg-1): 4.9 ± 0.6 h | AUC ([4]; p.o. 6 mg kg-1, read-out: AUC): 1590 ng·h/mL | Cmax ([4]; p.o. 6 mg kg-1, read-out: Cmax): 216 ± 103 ng/mL | Tmax ([4]; p.o. 6 mg kg-1, read-out: Tmax): 1.3 ± 0.6 h | half-life ([4]; p.o. 18 mg kg-1): 4.7 ± 0.7 h | AUC ([4]; p.o. 18 mg kg-1, read-out: AUC): 9210 ng·h/mL | Cmax ([4]; p.o. 18 mg kg-1, read-out: Cmax): 1630 ng/mL | Tmax ([4]; p.o. 18 mg kg-1, read-out: Tmax): 3.7 ± 3.8 h
